Measured values published in EP0369733A2, “Fluorescent indicator dyes for alkali metal cations, their preparation and use” (THE REGENTS OF THE UNIVERSITY OF CALIFORNIA, priority 1988, dated 1990).

Columns and labels:
[1] = Cation titration followed by absorbance or fluorescence excitation spectra: K⁺ binding; conditions: 0.1 M tetramethylammonium chloride, 1-5 mM tris(hydroxymethyl)aminomethane, high pH; read-out: Dissociation constants (Kd) in mM for K⁺
Experimental: (§1) • Footnote a: For molecular structures, see Fig. 1. • Footnote b: Except where otherwise noted, these dissociation constants were measured with the chelator dissolved in 0.1 M tetramethylammonium chloride, at a pH held high enough with 1-5 mM tris(hydroxymethyl)aminomethane for protonation to be insignificant. The absorbance spectrum, or the fluorescence excitation spectrum for those compounds (2GG, 2NN, 2OO, 2PP, 3NN) with acronyms was measured as a function of the concentration of cation added as a solid or concentrated aqueous solution of the halide salt. No correction has been made for the changing ionic strength of the solution, which started from 0.1 M and increased, but the absorbances and fluorescence amplitudes were applied for dilution of the dye and any slight quenching due to high concentrations of Cl⁻. • Footnote c: These protonation constants were determined in 0.1 M tetramethylammonium chloride, 10 mM tris(hydroxymethyl)aminomethane, titrated with 5 M H₃PO₄ to successively lower pH values measured with a Radiometer PHM84 meter. […] The first number is the wavelength in nanometers, followed in parentheses by 10⁻³ x the corresponding extinction coefficient, M⁻¹cm⁻¹. […] Emission maxima are not corrected for the spectral sensitivity of the emission detection. Quantum efficiencies were measured (13) by comparing the integral of the corrected emission spectrum with the corresponding integral for a solution of quinine bisulfate in 1 N H₂SO₄ of matched absorbance at the excitation wavelength.
Affinities for other cations were usually measured by titrating aqueous solutions of the indicator with metal chlorides added either as solid or from concentrated stock solutions, taking care to minimize dilution and correct for it. […] This convenient titration procedure had the slight disadvantage that the ionic strength was not constant, especially when large quantities of a salt had to be added due to weak affinities. […]

[2] = UV absorbance spectra without and with saturating cation; type: physicochemical; conditions: for Absorbance maxima -Na⁺ (wavelength): 100 mM tetramethylammonium chloride plus 1-5 mM Tris; for Absorbance maxima -Na⁺ (wavelength) / Absorbance maxima -Na⁺ (extinction coefficient): no Na⁺; for Absorbance maxima -Na⁺ (extinction coefficient) / Absorbance maxima +Na⁺, footnote l (extinction coefficient) / Absorbance maxima +Na⁺ (extinction coefficient): number is 10⁻³ x the extinction coefficient; for Absorbance maxima -Na⁺ (extinction coefficient): lower limits for most compounds; for Absorbance maxima +Na⁺, footnote l (extinction coefficient) / Absorbance maxima +Na⁺, footnote l (wavelength): saturating K⁺ rather than Na⁺; for Absorbance maxima +Na⁺ (wavelength): enough NaCl added (0.2-1 M) to saturate the Na⁺ binding; for Absorbance maxima +Na⁺ (extinction coefficient): lower limits, saturating NaCl (0.2-1 M)
Experimental: as §1
(§2) UV absorbance spectra were recorded initially on a Cary 210 and later on a Perkin-Elmer Lambda Array 3840 spectrophotometer. Fluorescence excitation and emission spectra and quantum efficiencies were measured on a Spex Fluorolog 111 as described previously (13).

[3] = Fluorescence excitation/emission spectra and quantum efficiency; type: physicochemical; conditions: for Emission maxima -Na⁺: 100 mM tetramethylammonium chloride; for Emission maxima -Na⁺ / Quantum efficiency -Na⁺: no Na⁺; for Emission maxima -Na⁺ / Emission maxima +Na⁺: not corrected for detector sensitivity; for Quantum efficiency -Na⁺ / Quantum efficiency +Na⁺: relative to quinine bisulfate in 1 N H₂SO₄ (0.55); for Emission maxima +Na⁺, footnote l / Quantum efficiency +Na⁺, footnote l: saturating K⁺ rather than Na⁺; for Emission maxima +Na⁺: saturating NaCl; for Quantum efficiency +Na⁺: saturating Na⁺
Experimental: as §1, §2

physchem [4] = assay: physchem
Experimental: The lowest curve ([Na⁺] = 0) was obtained with 5 µM SBFI in 130 mM KCl, 10 mM MOPS, KOH to pH 7.05, approximately 135 mM total K⁺. The highest curve ([Na⁺] = 135 mM) was analogously recorded from 5 µM SBFI in 130 mM NaCl, 10 mM MOPS, NaOH to pH 7.05. The intermediate curves from 1.35 to 94.5 mM Na⁺ were obtained by successively 1/100, 1/99, 3/98, 1/19, 1/9, 1/4, and 1/2 of the K⁺-rich SBFI solution by the SBFI in Na medium. The excitation bandwidth was 1.85 nm; emission was collected at 500 nm with 9.3 nm bandwidth. […] The lowest curve was obtained in 130 mM NaCl, 10 mM MOPS, NaOH to pH 7.05. The highest curve was in 130 mM KCl, 10 mM MOPS, KOH to pH 7.05. The intermediate curves with 13.5 to 112.5 mM K⁺ were obtained by iteratively replacing 1/10, 1/9, 1/6, 1/4, 1/3, and 1/2 of the low K⁺ medium by the 135 mM KCl solution of PBFP.
Proton dissociation constants of the chelators were measured by spectrophotometry or spectrofluorometry of buffered solutions, containing either 100 mM tetramethylammonium chloride as inert supporting electrolyte, or 121.5 mM K⁺, 13.5 mM Na⁺, and 1 mM Mg²⁺ to simulate the cation environment of vertebrate cytoplasm (14). […] When the chelators contained two protonatable nitrogens, the curve of absorbance or fluorescence versus pH was analyzed by computerized least-squares fitting to the equations for two arbitrary proton equilibria (15), with the added assumption that the two protonations each caused the same change in extinction coefficient or fluorescence. This assumption was based on the presence of two identical chromophores in each chelator and produced good fits to the experimental data.

[5] = Cation titration followed by absorbance or fluorescence excitation spectra: Na⁺ binding
Experimental: as §1
(§3) Affinities for other cations were usually measured by titrating aqueous solutions of the indicator with metal chlorides added either as solid or from concentrated stock solutions, taking care to minimize dilution and correct for it. A convenient way to mass-produce premeasured micromole to millimole aliquots of solid NaCl or KCl was to pipet saline solutions into polypropylene micro test tubes and evaporate the water in an oven. The standard ionic background was again 100 mM tetramethylammonium chloride, usually with a few mM of tris(hydroxymethyl)-aminomethane base to hold the pH high enough (pH 8-9) to insure that protonation was negligible. This convenient titration procedure had the slight disadvantage that the ionic strength was not constant, especially when large quantities of a salt had to be added due to weak affinities. […] When constant ionic strength was desired, the chelator was made up at identical concentrations in matched solutions of NaCl, KCl, or tetramethylammonium chloride, then these stocks were mixed in the desired proportions. All measurements were made at room temperature (22°, ±2° C).

[6] = Cation titration followed by absorbance or fluorescence excitation spectra: Mg²⁺ binding; conditions: 0.1 M tetramethylammonium chloride, 1-5 mM tris(hydroxymethyl)aminomethane, high pH; read-out: Dissociation constants (Kd) in mM for Mg²⁺
Experimental: as §1
as §3, with “proportions.” for “proportions. All measurements were made at room temperature (22°, ±2° C).”

[7] = Cation titration followed by absorbance or fluorescence excitation spectra: Ca²⁺ binding; conditions: 0.1 M tetramethylammonium chloride, 1-5 mM tris(hydroxymethyl)aminomethane, high pH; read-out: Dissociation constants (Kd) in mM for Ca²⁺
Experimental: as §1, §3

[8] = Solubility in water for spectrophotometry; type: physicochemical
physchem [9] = conditions: 0.1 m tetramethylammonium chloride
Experimental: (§4) • Footnote a: For molecular structures, see Fig. 1. • Footnote b: Except where otherwise noted, these dissociation constants were measured with the chelator dissolved in 0.1 M tetramethylammonium chloride, at a pH held high enough with 1-5 mM tris(hydroxymethyl)aminomethane for protonation to be insignificant. […] No correction has been made for the changing ionic strength of the solution, which started from 0.1 M and increased, but the absorbances and fluorescence amplitudes were applied for dilution of the dye and any slight quenching due to high concentrations of Cl⁻. • Footnote c: These protonation constants were determined in 0.1 M tetramethylammonium chloride, 10 mM tris(hydroxymethyl)aminomethane, titrated with 5 M H₃PO₄ to successively lower pH values measured with a Radiometer PHM84 meter.
(§5) Proton dissociation constants of the chelators were measured by spectrophotometry or spectrofluorometry of buffered solutions, containing either 100 mM tetramethylammonium chloride as inert supporting electrolyte, or 121.5 mM K⁺, 13.5 mM Na⁺, and 1 mM Mg²⁺ to simulate the cation environment of vertebrate cytoplasm (14). Traces of UV-absorbing impurities in the tetramethylammonium chloride (Alfa Inorganics) were removed by filtration through acid-­washed activated charcoal. The concentration of the tetramethylammonium chloride was then measured by chloride titration, and the absence of significant Na⁺ contamination was verified with a sodium-selective glass electrode (Microelectrodes Inc.). When the chelators contained two protonatable nitrogens, the curve of absorbance or fluorescence versus pH was analyzed by computerized least-squares fitting to the equations for two arbitrary proton equilibria (15), with the added assumption that the two protonations each caused the same change in extinction coefficient or fluorescence.

[10] = Proton dissociation constants in 0.1 M tetramethylammonium chloride; conditions: second value (second protonation), 10 mM Tris titrated with 5 M H₃PO₄
Experimental: as §4, §5

[11] = quinine bisulfate in 1 N H₂SO₄; assumed value; cited from earlier work
[12] = 0.1 M tetramethylammonium chloride, 1-5 mM tris(hydroxymethyl)aminomethane, pH high enough for protonation to be insignificant, 22°, read-out: Dissociation constants (Kd) in mM for Na⁺

Row | Molecule | Kd [1] | Absorbance maxima -Na⁺ (wavelength) [2] | Absorbance maxima -Na⁺ (extinction coefficient) [2] | Absorbance maxima +Na⁺, footnote l (extinction coefficient) [2] | Absorbance maxima +Na⁺, footnote l (wavelength) [2] | Emission maxima -Na⁺ [3] | Quantum efficiency -Na⁺ [3] | Emission maxima +Na⁺, footnote l [3] | Quantum efficiency +Na⁺, footnote l [3] | pKa (physchem [4]; 126 mm kcl, 14 mm nacl) | Kd [5, 12] | Kd [6] | Kd [7] | Absorbance maxima +Na⁺ (wavelength) [2] | Absorbance maxima +Na⁺ (extinction coefficient) [2] | Emission maxima +Na⁺ [3] | pKa (physchem [9]) | pKa [10] | further results
1 | COc1cc2cc(-c3ccc(C(=O)O)c(C(=O)O)c3)oc2cc1N1CCOCCOCCN(c2cc3oc(-c4ccc(C(=O)O)c(C(=O)O)c4)cc3cc2OC)CCOCCOCC1 [Compound 3NN, N,N-bis(2-(3,4-dicarboxyphenyl)-5-methoxybenzofuran-6-yl)-diaza[18]-crown-5] | 83 mM | 344 nanometers | 23000 M⁻¹ cm⁻¹ | 25000 M⁻¹ cm⁻¹ | 337 nanometers | 518 nanometers | .0075 | 494^l nanometers | .12^l | 6.68 | – | – | – | – | – | – | – | – | –
2 | COc1cc2cc(-c3ccc(C(=O)O)cc3C(=O)O)oc2cc1N1CCOCCOCCN(c2cc3oc(-c4ccc(C(=O)O)cc4C(=O)O)cc3cc2OC)CCOCCOCC1 [Compound 3PP] | 8 mM | 350 nanometers | 42000 M⁻¹ cm⁻¹ | 42000 M⁻¹ cm⁻¹ | 344 nanometers | 545 nanometers | .024 | 504^l nanometers | .072^l | – | 21 mM | 40 mM | 16 mM | – | – | – | – | – | pKa (physchem [4]): 5.78
3 | N,N-bis-(1-acetamidoacridin-4-yl)-diaza[15]-crown-5 [Compound 2HH] | – | – | – | – | – | – | – | – | – | – | – | – | – | – | – | – | – | – | solubility in water [8]: insufficiently soluble in water for spectrophotometry
4 | COc1cc2cc(-c3ncc(C(=O)O)o3)oc2cc1N1CCOCCOCCN(c2cc3oc(-c4ncc(C(=O)O)o4)cc3cc2OC)CCOCC1 [Compound 2OO, N,N-bis-(2-(5-carboxyoxazol-2-yl)-5-methoxybenzofuran-6-yl)-diaza[15]-crown-5] | – | 355 nanometers | 25000 M⁻¹ cm⁻¹ | – | – | 515 nanometers | – | – | – | 4.82 | 50 mM | 63 mM | – | 343 nanometers | 27000 M⁻¹ cm⁻¹ | 500 nanometers | 5.34 | 4.15 | Na⁺ affinity ([5]; association constant, inert background cation (tetramethylammonium)): 20 M⁻¹; Kd ([5]; footnote h: 3.0 M ionic strength (3.0 M NaCl mixed with 3.0 M tetramethylammonium chloride), read-out: Dissociation constants (Kd) in mM for Na⁺): 22 mM; Quantum efficiency -Na⁺ ([3]; listed as 2OO (SBFO)): .14; Quantum efficiency -Na⁺ ([3]; listed as SBFO): 0.14; Quantum efficiency +Na⁺ ([3]; listed as 2OO (SBFO)): .44; Quantum efficiency +Na⁺ ([3]; listed as SBFO): 0.44
5 | COc1cc2cc(-c3ccc(C(=O)O)c(C(=O)O)c3)oc2cc1N1CCOCCOCCN(c2cc3oc(-c4ccc(C(=O)O)c(C(=O)O)c4)cc3cc2OC)CCOCC1 [Compound 2NN, N,N-bis-(2-(3,4-dicarboxyphenyl)-5-methoxybenzofuran-6-yl)-diaza[15]-crown-5] | – | 342 nanometers | 45500 M⁻¹ cm⁻¹ | – | – | 528 nanometers | .036 | – | – | 6.4 | 8.5 mM | 18 mM | 40 mM | 334 nanometers | 51600 M⁻¹ cm⁻¹ | 505 nanometers | 6.3 | 5.5 | Kd ([5]; summary statement, conditions not specified, read-out: dissociation constant (Na⁺), range achieved): 5 to 20 mM; Quantum efficiency +Na⁺ [3]: .091
6 | C=C[C@H]1C[N@@]2CC[C@H]1C[C@H]2[C@H](O)c1ccnc2ccc(OC)cc12 [Quinine, quinine bisulfate] | – | – | – | – | – | – | – | – | – | – | – | – | – | – | – | – | – | – | quantum efficiency of reference standard [11]: 0.55
